Source: patent US20100112089A1, “PEPTIDE COMPOUND AND USE THEREOF” (Takeda Pharmaceutical Company Limited, priority 2008, published 2010)
Where a name gives a salt, the structure may show the parent alone. Square brackets hold non-standard residues; d marks the D form. Peptide text beside a SMILES is read from it. dPhe(F5) = N[C@H](Cc1c(F)c(F)c(F)c(F)c1F)C(=O)O; dBpa = N[C@H](Cc1ccc(C(=O)c2ccccc2)cc1)C(=O)O; dCha = N[C@H](CC1CCCCC1)C(=O)O

Experiments:
MSTO-211H cells = assay: Water soluble tetrazolium (WST) analysis; type: cell-based; conditions: 72 hours
Method: (§1) The medium was replaced 24 hr after treatment, the cells were incubated for an additional 48 hr, and WST-8 solution (Kishida Chemical Co., Osaka, Japan) was added to each well. After 4 hr of incubation at 37° C., the absorbance at 450 nm was measured by microplate reader (Molecular Devices, Calif.).

NCI-H226 cells = assay: Water soluble tetrazolium (WST) analysis; type: cell-based; conditions: 72 hours
Method: as §1

[1] = Pharmacokinetics of CBP501, single agent study; type: in vivo, human; conditions: for AUC(0-inf) / Cmax / clearance / half-life: human
Excerpt: (§2) PK was examined in cycle (cy) 1. MTD is the level below that where 2 of 3-6 patients (pts) have DLT during cy 1-2.
In the single agent study, PK was examined in cycle 1. Samples were collected on Days 1 and 15 before the start of the infusion, then at various time points over 24 hr from the start of the infusion, as described below.

[2] = test system: patients with locally advanced or metastatic solid tumors; assay: Phase I single agent study of CBP501 (Study A): MTD, DLT, safety, antitumor activity; type: in vivo, human
Excerpt: as §2
A minimum of 3 patients were to be enrolled at each dose level, and 6 in the event of DLT.
(1) Neutropenia Gr 4 lasting 7 days (5 days in combination study) or Gr 3-4 neutropenia with fever and/or infection, (2) Thrombocytopenia Gr 4 (or grade 3 with bleeding), (3) Treatment-related non-hematological toxicity Gr 3 or 4 (excluding Gr 3 vomiting or diarrhea with sub-optimal prophylactic and curative treatment), and (4) Dosing delay greater than 2 weeks or treatment discontinuation due to treatment-emergent adverse events or related severe laboratory abnormalities.
The MTD was defined as the dose level below that in which DLT was observed during the first 2 cycles in at least 2 out of the 3-6 patients assessable for determination of MTD. The MTD was to be the RD for future studies. Patients evaluable for MTD were those who completed 2 treatment cycles or experienced DLT during the first 2 cycles.
(1) Echocardiogram or MUGA scan (baseline and every 2 cycles), (2) Cardiac enzymes (CPK-MB, CPK-MM, troponin; baseline and prior to each administration), and (3) ECG (before infusion, end of infusion, and 1 hr after infusion end).
(1) Pathologically-confirmed, locally advanced or metastatic solid tumors, refractory to standard therapy or for which conventional therapy is not reliably effective, (2) Presence of measurable disease according to RECIST criteria was not required, but was recommended in additional patients entered at MTD, (3) Age ≧18 years; Eastern Cooperative Oncology Group (ECOG) PS 0-2; Life expectancy >3 months, (4) Adequate organ function (hematological, hepatic, renal, metabolic), and (5) Signed informed consent

[3] = in vivo, 0.9 mg/m2, single agent, 0.9 mg/m^2, Day 1, mean, N 4
[4] = in vivo, 0.9 mg/m2, single agent, 0.9 mg/m^2, Day 15, mean, N 3
[5] = in vivo, 7.2 mg/m2, single agent, 7.2 mg/m^2, Day 1, mean, N 3
[6] = in vivo, 7.2 mg/m2, single agent, 7.2 mg/m^2, Day 15, mean, N 3
[7] = in vivo, 9.57 mg/m2, single agent, 9.57 mg/m^2, Day 1, mean, N 3
[8] = in vivo, 9.57 mg/m2, single agent, 9.57 mg/m^2, Day 15, mean, N 2
[9] = in vivo, 12.73 mg/m2, single agent, 12.73 mg/m^2, Day 1, mean, N 3
[10] = in vivo, 12.73 mg/m2, single agent, 12.73 mg/m^2, Day 15, mean, N 3
[11] = in vivo, 16.93 mg/m2, single agent, 16.93 mg/m^2, Day 1, mean, N 2
[12] = in vivo, 16.93 mg/m2, single agent, 16.93 mg/m^2, Day 15, mean, N 3
[13] = in vivo, 22.5 mg/m2, single agent, 22.5 mg/m^2, Day 1, mean, N 7
[14] = in vivo, 22.5 mg/m2, single agent, 22.5 mg/m^2, Day 15, mean, N 5
[15] = in vivo, […]2, single agent, […]^2, Day 1, mean, N 3
[16] = in vivo, […]2, single agent, […]^2, Day 1, mean, N 4
[17] = cardiac monitoring, both studies
[18] = single agent, 9.5 mg/m^2, 3 pts
[19] = single agent, 16.9 mg/m^2, 3 pts
[20] = single agent, 22.5 mg/m^2, 7 pts

For `N=C(N)NCCC[C@@H](NC(=O)[C@@H](CCCNC(=N)N)NC(=O)[C@@H](CCC(N)=O)NC(=O)[C@@H](CCCNC(=N)N)NC(=O)[C@@H](CCCNC(=N)N)NC(=O)[C@@H](CCCNC(=N)N)NC(=O)[C@@H](CC1CCCCC1)NC(=O)[C@@H](Cc1c(F)c(F)c(F)c(F)c1F)NC(=O)[C@@H](CO)NC(=O)[C@@H](Cc1c[nH]c2ccccc12)NC(=O)[C@@H](CO)NC(=O)[C@H](N)Cc1ccc(C(=O)c2ccccc2)cc1)C(=O)O` [CBP501, H-(D)p-Benzoylphenylalanyl-(D)seryl-(D)tryptophyl-(D)seryl-(D)pentafluorophenylalanyl-(D)cyclohexylalanyl-(D)arginyl-(D)arginyl-(D)arginyl-(D)glutaminyl-(D)arginyl-(D)arginine acetate salt] (H-[dBpa][dS][dW][dS][dPhe(F5)][dCha][dR][dR][dR][dQ][dR][dR]-OH), the “cytotoxicity of cisplatin on addition of CBP501” value (MSTO-211H cells) was “increased”, the “cytotoxicity of cisplatin on addition of CBP501” value (NCI-H226 cells) was “increased” and the “inter-patient variability within dose levels, coefficient of variation” value ([1]; both studies, generally in the range) was 20%-40%. The AUC(0-inf) [1, 3] was 178 ng·h/mL, the Cmax [1, 3] was 121 ng/mL and the clearance [1, 3] was 2.05 mL/min/kg. For the same compound, the half-life [1, 3] was 0.7 h, the AUC(0-inf) [1, 4] was 188 ng·h/mL and the Cmax [1, 4] was 138 ng/mL. It also gave a clearance [1, 4] of 1.8 mL/min/kg, a half-life [1, 4] of 0.6 h and an AUC(0-inf) [1, 5] of 4390 ng·h/mL. It also gave a Cmax [1, 5] of 1920 ng/mL, a clearance [1, 5] of 0.817 mL/min/kg and a half-life [1, 5] of 1.3 h. The AUC(0-inf) [1, 6] was 3660 ng·h/mL, the Cmax [1, 6] was 2010 ng/mL and the clearance [1, 6] was 0.933 mL/min/kg. It also gave a half-life [1, 6] of 1.1 h, an AUC(0-inf) [1, 7] of 6480 ng·h/mL and a Cmax [1, 7] of 2890 ng/mL. The clearance [1, 7] was 0.633 mL/min/kg, the half-life [1, 7] was 2.5 h and the AUC(0-inf) [1, 8] was 5140 ng·h/mL. The Cmax [1, 8] was 2410 ng/mL, the clearance [1, 8] was 0.783 mL/min/kg and the half-life [1, 8] was 1.2 h. The AUC(0-inf) [1, 9] was 6340 ng·h/mL, the Cmax [1, 9] was 2730 ng/mL and the clearance [1, 9] was 0.983 mL/min/kg. It also gave a half-life [1, 9] of 1.4 h, an AUC(0-inf) [1, 10] of 7660 ng·h/mL and a Cmax [1, 10] of 3080 ng/mL. The clearance [1, 10] was 0.8 mL/min/kg, the half-life [1, 10] was 2.4 h and the AUC(0-inf) [1, 11] was 14300 ng·h/mL. For the same compound, the Cmax [1, 11] was 4920 ng/mL, the clearance [1, 11] was 0.617 mL/min/kg and the half-life [1, 11] was 2 h. For the same compound, the AUC(0-inf) [1, 12] was 12600 ng·h/mL, the Cmax [1, 12] was 4640 ng/mL and the clearance [1, 12] was 0.6 mL/min/kg. The half-life [1, 12] was 2.9 h, the AUC(0-inf) [1, 13] was 16500 ng·h/mL and the Cmax [1, 13] was 6080 ng/mL. The clearance [1, 13] was 0.667 mL/min/kg, the half-life [1, 13] was 3.2 h and the AUC(0-inf) [1, 14] was 20200 ng·h/mL. For the same compound, the Cmax [1, 14] was 7490 ng/mL, the clearance [1, 14] was 0.583 mL/min/kg and the half-life [1, 14] was 4 h. The clearance [1, 15] was 0.917 mL/min/kg, the half-life [1, 15] was 1.2 h and the clearance [1, 16] was 0.867 mL/min/kg. For the same compound, the half-life [1, 16] was 1.7 h, the half-life ([1]; in vivo, […]2, single agent, […]^2, Day 15, mean, N 3) was 1.6 h and the “differences in PK between day 1 and day 15 or between single-agent and combination administration” value ([1]; in vivo) was “No consistent differences”. The “dose range over which dose-proportionality of Cmax and AUC0-inf was observed” value ([1]; in vivo) was 40 fold, the Cl ([1]; single agent, 0.9 mg/m^2, Day 1, mean, N 4) was 5240 mL/h/m^2 and the Cl ([1]; single agent, 0.9 mg/m^2, Day 15, mean, N 3) was 4908 mL/h/m^2. It also gave a Cl ([1]; single agent, 7.2 mg/m^2, Day 1, mean, N 3) of 1802 mL/h/m^2, a Cl ([1]; single agent, 7.2 mg/m^2, Day 15, mean, N 3) of 2041 mL/h/m^2 and a Cl ([1]; single agent, 9.57 mg/m^2, Day 1, mean, N 3) of 1599 mL/h/m^2. For the same compound, the Cl ([1]; single agent, 9.57 mg/m^2, Day 15, mean, N 2) was 1954 mL/h/m^2, the Cl ([1]; single agent, 12.73 mg/m^2, Day 1, mean, N 3) was 2081 mL/h/m^2 and the Cl ([1]; single agent, 12.73 mg/m^2, Day 15, mean, N 3) was 1677 mL/h/m^2. It also gave a Cl ([1]; single agent, 16.93 mg/m^2, Day 1, mean, N 2) of 1395 mL/h/m^2, a Cl ([1]; single agent, 16.93 mg/m^2, Day 15, mean, N 3) of 1372 mL/h/m^2 and a Cl ([1]; single agent, 22.5 mg/m^2, Day 1, mean, N 7) of 1458 mL/h/m^2. It also gave a Cl ([1]; single agent, 22.5 mg/m^2, Day 15, mean, N 5) of 1206 mL/h/m^2, a Cl ([1]; single agent, […]^2, Day 1, mean, N 3) of 2197 mL/h/m^2 and a Cl ([1]; single agent, […]^2, Day 1, mean, N 4) of 2908 mL/h/m^2. The “dose-proportionality of Cmax and AUC” value ([1]; single agent, days 1 and 15, over the dose range evaluated, acetate salt) was “showed dose-proportionality”, the “QTc > 500 ms (patients)” value ([2]; Single agent (16 pts), centralized ECG review) was 0 and the “Abdominal pain Gr 1-2” value ([2]; Single-agent (n = 30)) was 7. For the same compound, the “Abdominal pain Gr 3” value ([2]; Single-agent (n = 30)) was 2, the “Allergy (includes infusion reaction, flushing, rash, etc.) Gr 1-2” value ([2]; Single-agent (n = 30)) was 18 and the “Diarrhea Gr 1-2” value ([2]; Single-agent (n = 30)) was 5. For the same compound, the “Diarrhea Gr 3” value ([2]; Single-agent (n = 30)) was 1, the “Fatigue Gr 1-2” value ([2]; Single-agent (n = 30)) was 14 and the “Fatigue Gr 3” value ([2]; Single-agent (n = 30)) was 1. The “Headache Gr 1-2” value ([2]; Single-agent (n = 30)) was 3, the “Increased troponin Gr 3” value ([2]; Single-agent (n = 30)) was 1 and the “Nausea/Vomiting Gr 1-2” value ([2]; Single-agent (n = 30)) was 5. For the same compound, the “Neutropenia Gr 1-2” value ([2]; Single-agent (n = 30)) was 3, the “QTc prolongation Gr 1-2” value ([2]; Single-agent (n = 30)) was 10 and the “Thrombocytopenia Gr 1-2” value ([2]; Single-agent (n = 30)) was 4. The “Anemia Gr 1-2” value ([2]; Single-agent (n = 30), 16 with baseline anemia) was 22 (16*), the “patients with QTc prolongation by >60 msec” value ([2]; both studies, centralized ECG review (16 + 24 patients)) was 4 and the “start of allergic reaction into the infusion” value ([2]; both studies, rash, hot flushes, urticaria) was 10 to 60 min. The “pts with QTcB >500 msec” value [2, 17] was 1, the “pts with QTcB prolongation >60 msec” value [2, 17] was 2 and the “time for troponin to return to normal levels” value ([2]; patient at DL 8, single-agent, Gr 3 troponin elevation) was “within one week”. The tolerability ([2]; single agent) was “well tolerated”, the “Patients with allergic reaction Gr1” value ([2]; single agent, 0.9 mg/m^2, 4 pts) was 1 and the “Patients with allergic reaction Gr2” value ([2]; single agent, 7.2 mg/m^2, 3 pts) was 3. For the same compound, the “Patients with allergic reaction Gr1” value [2, 18] was 1, the “Patients with allergic reaction Gr2” value [2, 18] was 2 and the “Patients with allergic reaction Gr1” value [2, 19] was 1. The “Patients with allergic reaction Gr2” value [2, 19] was 1, the “Patients with allergic reaction Gr1” value [2, 20] was 3 and the “Patients with allergic reaction Gr2” value [2, 20] was 4. For the same compound, the “pts with Gr 1-2 allergy” value ([2]; single agent, 30 pts treated (43%), interim summary) was 13, the “Patients with allergic reaction Gr1” value ([2]; single agent, TOTAL, 30 pts) was 7 and the “Patients with allergic reaction Gr2” value ([2]; single agent, TOTAL, 30 pts) was 11. The MTD ([2]; single agent, doses up to 22.5 mg/m^2) was “not reached” and the DLT ([2]; single-agent, dose 22.5 mg/m^2, 7 pts, 11 cycles) was 1.
